# Test system: recombinant GFP-expressing RSV (strain A2) in A549 cells
# Assay type: cell-based, human respiratory syncytial virus
# Details: A549 cells, eGFP RSV, GFP-positive cells by FACS 24 h p.i.
# Description: A549 cells were infected with a recombinant green fluorescent protein (GFP)-expressing RSV (strain A2) ([23]), and the inhibitory activity of the peptide was quantified by flow cytometry.
# Each peptide was diluted 3 times by 2-fold serial dilutions. eGFP RSV virus at an MOI of 0.5 was used for the infection, and GFP-positive cells were counted by FACS analysis 24 h p.i. The GFP data were normalized to the fluorescence values observed with virus only and plotted as percent inhibition.
# Serial 4-fold dilutions of inhibitors were mixed with eGFP-encoding RSV virus ([23]) with a volume of virus required to achieve approximately 50% of infection in medium containing 2% fetal calf serum. The resulting mixture was added to 24-well plates containing A549 cells. Cells were incubated for 2 h at 37°C, the medium was replaced, and cells were incubated for an additional 24 h. Cells were treated with 300 μl of trypsin for 10 min at 37°C, and the detached cells were diluted in 1 ml of culture medium. Following centrifugation at 1,700 rpm, the pellet was resuspended in 300 μl of PBS–1% fetal bovine serum (FBS) (vol/vol) and GFP-positive cells were counted by fluorescence-activated cell sorter (FACS) analysis. The GFP data were normalized to the fluorescence value observed with virus only. The resulting inhibition curves were fitted in Igor Pro as described above.
structure (smiles),measurement,value
"CC[C@H](C)[C@@H]1NC(=O)[C@H](CO)NC(=O)[C@](C)(NC(=O)[C@H](CC(=O)O)NC(=O)[C@H](Cc2ccccc2)NC(C)=O)CCCCCCC=CCCC[C@@](C)(C(=O)N[C@@H](CCCCN)C(=O)N[C@H](C(=O)N[C@@H](CC(N)=O)C(=O)N[C@@H](CCC(N)=O)C(=O)N[C@@H](CO)C(=O)N[C@@H](CC(C)C)C(=O)N[C@@H](C)C(=O)N[C@@H](Cc2ccccc2)C(=O)N[C@H](C(=O)N[C@]2(C)CCCCCCC=CCCC[C@@](C)(C(=O)N[C@@H](CC(N)=O)C(=O)N[C@H](C(=O)N[C@@H](CC(N)=O)C(=O)N[C@@H](C)C(=O)NCC(=O)N[C@@H](CCCCN)C(=O)N[C@@H](CO)C(=O)N[C@H](C(N)=O)[C@@H](C)O)C(C)C)NC(=O)[C@H](CC(C)C)NC(=O)[C@H](CC(C)C)NC(=O)[C@H](CCC(=O)O)NC(=O)[C@H](CC(=O)O)NC(=O)[C@H](CO)NC(=O)[C@H](CCCCN)NC2=O)[C@@H](C)CC)[C@@H](C)CC)NC(=O)[C@H](CC(N)=O)NC(=O)[C@H](C(C)C)NC(=O)[C@H](CCC(N)=O)NC(=O)[C@H](CO)NC1=O [RSV-SAHBD (Z), reference compound]",inhibition of RSV-eGFP infection (in words),potency similar to that of peptides 4bb and 4ca

# Source: publication PMC5365662, “A Short Double-Stapled Peptide Inhibits Respiratory Syncytial Virus Entry and Spreading” (Antimicrobial Agents and Chemotherapy, 2017)
